Patent US20070105847A1, “1,3-Dioxane derivatives and analogues thereof useful in the treatment of i.a. obesity and diabetes” (priority 2004, published 2007)

Tests used:
Swiss albino mice = test: Serum triglyceride and total cholesterol lowering activity in Swiss albino mice; format: in vivo; conditions: male Swiss albino mice, oral, 10 mg/kg/day for 6 days, 1 hour after dosing on 6th day
Method: • i) Serum triglyceride and total cholesterol lowering activity in Swiss albino mice:
Male Swiss albino mice (SAM) were bred in Zydus animal house. All these animals were maintained under 12 hour light and dark cycle at 25±1° C. Animals were given standard laboratory chow (NIN, Hyderabad, India) and water ad libitum. SAM of 20-30 g body weight range was used. The protocol approved by Institutional Animal Ethics Committee is being used.
The test compounds were administered orally to Swiss albino mice at 0.001 to 50 mg/kg/day dose for 6 days. The compound was administered after suspending it in 0.25% CMC or dissolving it in water, when compound is water-soluble. Control mice were treated with vehicle (0.25% of Carboxymethylcellulose; dose 10 ml/kg).
The blood samples were collected on 0th day and in fed state 1 hour after drug administration on 6th day of the treatment. The blood was collected in non heparinised capillary and the serum was analyzed for triglyceride and total cholesterol (Wieland, O. Methods of Enzymatic analysis. Bergermeyer, H., O., Ed., 1963. 211-214; Trinder, P. Ann. Clin. Biochem. 1969. 6: 24-27). Measurement of serum triglyceride and total cholesterol was done using commercial kits (Zydus-Cadila, Pathline, Ahmedabad, India).
Percentage reduction in triglycerides/total cholesterol were calculated according to the formula: [formula]
OC=Zero day control group value OT=Zero day treated group value TC=Test day control group TT=Test day treated group

[1] = system: Hamster of Syrian golden stain; test: Serum triglyceride and total cholesterol lowering activity in Hamster of Syrian golden strain on HF-HC diet; format: in vivo; conditions: hamsters on HF-HC diet, po, 3 mg/kg/day for 15 days
Source text: ii) Surem triglyceride and total cholesterol lowering activity in Hamster of Syrian golden stain:
Male and Female Hamster of Syrian golden stain were bred in Zydus animal house. All these animals were maintained under 12-hour light and dark cycle at 22±3 degree C. The protocol approved by Institutional Animal Ethics Committee is being used. Two groups of animals were put on HF-HC (High fat and high cholesterol) diet for 14 days. On day 14 […] one group of animals of were put on normal diet for two weeks.
One group of animals on HF-HC diet were treated (po) with compounds of the present invention, at 0.001 to 50 mg/kg daily for 15 days while the other group received the vehicle. After 15 days blood samples. were be collected in non heparinized capillary from animals for determination of total cholesterol (TC), triglyceride (TG) (Wieland, O. Methods of Enzymatic analysis. Bergermeyer, H., O., Ed., 1963. 211-214; Trinder, P. Ann. Clin. Biochem. 1969. 6: 24-27). Measurement of serum triglyceride and total cholesterol was done using commercial kits (Pointe Scientific. Inc. USA.)
Percentage reduction in triglycerides/total cholesterol were calculated according to the formula:
• Percentage reduction (%)=(TT−TC)/TC*100
TC=Test day control group TT=Test day treated group.

Row | Compound | % Triglyceride lowering (Swiss albino mice) [%] | % Triglyceride lowering [1] [%]
1 | CC1(C(=O)O)OCC(CCCCc2ccc(OS(C)(=O)=O)cc2)CO1 (stereo not shown) [Example 50, 5-[4-(4-Methanesulfonyloxy-phenyl)-butyl]-2-methyl-[1,3]dioxane-2-carboxylic acid] | 32 | 45
2 | CC1(C(=O)O)OCC(CCCCOc2ccc(Cc3ccccc3)cc2)CO1 (stereo not shown) [Example 38, 5-[4-(4-Benzyl-phenoxy)-butyl]-2-methyl-[1,3]dioxane-2-carboxylic acid] | 32 | 
3 | CC1(C(=O)O)OCC(CCCCc2ccc(OCc3ccccc3)cc2)CO1 (stereo not shown) [Example 49, 5-[4-(4-Benzyloxy-phenyl)-butyl]-2-methyl-[1,3]dioxane-2-carboxylic acid] | 26 | 
